melting point: 120 to 122 °C
Compound: CCOC(=O)[C@H](Cc1ccc(N)cc1)NC(=O)c1ccccc1 [Example 6, (S)-Ethyl-2-benzoylamino-3-(4-aminophenyl)propionate]
